Entries after “also recorded” stand apart in the source; their conditions may differ.
Experiments:
[1] = system: Rhino mouse; experiment: Comedolytic effect of topical application to the Rhino mouse (comedone area); assay type: in vivo; settings: for comedone area (FIG. 5): 30 vol % ethanol/70% propylene glycol; for comedone area relative to vehicle-treated group (FIG. 11): 72 h after final dose
Text: (§1) Rhino mice were used to topically and orally test the compounds and compositions of the invention. The Rhino mouse is a well-established animal model used to study the comedolytic effects of anti-acne agents including retinoids. (See Boulcier M et al., Experimental Models in Skin Pharmacology, 1990, In Pharmacological Reviews 42:127-15). Mirshahpanah and Maibach, 2007, Cutaneous and Ocular Toxicology 26:195-202). The Rhino mouse model was used to study the therapeutic potential of 2-Methylene-19-nor-20(S)-1α-hydroxy-bishomopregnacalciferol (2MBisP), 19-Nor-26,27-dimethylene-20(S)-2-methylene-1α,25-dihydroxyvitamin D3 (CAGE-3), NEL, 24R-2MD2, Vit-III (17-20E), 2MPregna, 2MP, 20R-2MbisP, 2MTrisP, FF-44, FF-55, HPBS, VD-03 and atRA.
(§2) Animals and dose administration. Rhino mice 6-10 weeks old were dosed via the oral and/or topical route. In the majority of studies, the mice were dosed daily. In one topical study, the efficacy of daily versus intermittent (Monday/Wednesday/Friday) dosing was compared. The mice were weighed three times per week and doses were adjusted weekly based on body weight. The topical formulations were applied to the back of the animal in a maximum volume of 110 μL. The topical formulations were made by mixing the APIs with a topical carrier comprising 70 vol % propylene glycol and 30 vol % ethanol or 30 vol % propylene glycol and 70 vol % ethanol, as indicated. The topical vehicle control was the vehicle carrier solution matched to the formulation containing API and vehicle carrier.
(§3) The oral formulation was made by mixing the APIs with Wesson® soybean oil or NeoBee® oil. The oral dose was delivered to the back of the mouth of each mouse. Mice were sacrificed 4 hours after the final oral dose and 72 hours after the final topical dose. At sacrifice, the dorsal skin was collected for histological studies.
(§4) Comedolytic effect. The extent of the comedolytic effect (i.e., efficacy) was assessed by measuring the average area of the comedones, whereby the smaller the area, the larger the effect. The comedone area was determined by histological analysis of tissue sections based on a method developed in our lab (see FIG. 2). Skin was fixed overnight in 4% paraformaldehyde at 4 deg. C. with gentle agitation and dehydrated the next day into 100% methanol. Samples were embedded in paraffin and a total of nine 10 micron sections 150 microns apart were prepared from each Rhino mouse. Five of the nine sections were digitally imaged (6× magnification) for comedone analysis using Metamorph Imaging Software (trace function). The perimeter of each comedone on the images taken from the 5 sections was then traced using a Wacom Intuos 3 Graphics Tablet interfaced with the software. The number of pixels comprising the area of each individual comedone was obtained and transferred to an Excel spreadsheet, and the mean number of pixels per comedone was obtained for each Rhino mouse. For comedones that were completely healed (area=0) a pixel value approaching 0 (<10) was entered into the spreadsheet. The individual comedone area average for each mouse was then used to calculate the treatment group mean. Results in the figures are expressed in terms of mean±standard error of the mean.
Preparation of topical formulations containing 2MBisP, CAGE-3, 24R-2MD2, VitIII (17-20E), NEL, VD-03, 2MPregna, 2MP, 20R-2MBisP, 2MTrisP, FF-44, FF-55, and HPBS. Separate concentrated ethanolic stocks of 2MBisP, CAGE-3, 24R-2MD2, VitIII (17-20E) and NEL were diluted to a final concentration containing 70 vol % propylene glycol and 30 vol % ethanol or 30 vol % propylene glycol and 70 vol % ethanol as the excipient carrier system. The mixture was thoroughly mixed. The topical dosing formulation delivered the desired dosing amount of drug on a per kilogram body weight basis. A dose ranging from 100-110 μL in volume was administered to the back of the mouse. An average weight of 24 or 30 g/mouse was assumed in dose volume calculations. […]

[2] = system: Rhino mouse; experiment: Comedolytic effect of oral administration to the Rhino mouse (comedone area); assay type: in vivo
Text: as §1, §2, §3, §4
Preparation of oral dosing solutions containing 2MBisP, CAGE-3, 24R-2MD2, VitIII (17-20E) and NEL. Separate concentrated stocks of 2MBisP, CAGE-3, 24R-2MD2, VitIII (17-20E) and NEL were obtained in ethanol. The concentration was determined spectrophotometrically using a molar extinction coefficient=42,000 and a λmax=252.7. […] The final dose was delivered in ≦50 μL of oil.
Preparation of oral atRA dosing formulation. A concentrated stock solution containing atRA was prepared in dichloromethane. The atRA concentrated stock solution was diluted into ethanol. The concentration of atRA in that diluted stock solution was determined spectrophotometrically, whereby the molar extinction coefficient=45,200 and λmax=350. The purity of atRA was determined to be >99% by HPLC. […]

[3] = system: Rhino mouse; experiment: Combination of oral atRA and topical 2MBisP in the Rhino mouse (comedone area, skin morphology); assay type: in vivo
Experimental: as §2, §3
as §4, with “the mean. […]” for “the mean.”
Preparation of oral atRA dosing formulation. […] The concentration of atRA in that diluted stock solution was determined spectrophotometrically, whereby the molar extinction coefficient=45,200 and λmax=350. The purity of atRA was determined to be >99% by HPLC. […]

[4] = system: retinoic acid receptors (RARs); settings: Repa J J et al., 1993; cited from earlier work
[5] = daily topical 3 weeks, 70 vol % ethanol/30 vol % propylene glycol, 220 nmole/kgBW/day

Compound: C=C1[C@H](O)CC(=C/C=C2\CCC[C@]3(C)C([C@@H](C)CC)CC[C@@H]23)C[C@H]1O (stereo partly drawn) [2MBisP, 2-methylene-19-nor-20(S)-1α-hydroxy-bishomopregnacalciferol]
- response vs control in vivo at 0.022 µmol/kg ([1]; Mus musculus, 504 h, daily topical ca. 3 weeks, 70 vol % ethanol/30 vol % propylene glycol, dose 22 nmol/kg, mean ± SEM, read-out: Comedone Area (% Vehicle)): 97 ± 9%
- response vs control in vivo at 0.069 µmol/kg ([1]; Mus musculus, 504 h, daily topical ca. 3 weeks, 70 vol % ethanol/30 vol % propylene glycol, dose 69 nmol/kg, mean ± SEM, read-out: Comedone Area (% Vehicle)): 127 ± 12%
- response vs control in vivo at 0.217 µmol/kg ([1]; Mus musculus, 504 h, daily topical ca. 3 weeks, 70 vol % ethanol/30 vol % propylene glycol, dose 217 nmol/kg, mean ± SEM, read-out: Comedone Area (% Vehicle)): 49 ± 3%
- response vs control in vivo at 0.694 µmol/kg ([1]; Mus musculus, 504 h, daily topical ca. 3 weeks, 70 vol % ethanol/30 vol % propylene glycol, dose 694 nmol/kg, mean ± SEM, read-out: Comedone Area (% Vehicle)): 35 ± 4%
- response vs control in vivo at 2.187 µmol/kg ([1]; Mus musculus, 504 h, daily topical ca. 3 weeks, 70 vol % ethanol/30 vol % propylene glycol, dose 2187 nmol/kg, mean ± SEM, read-out: Comedone Area (% Vehicle)): 32 ± 7%
- comedone area (FIG. 5) ([1]; daily topical 3 weeks, 220 nmole/kgBW/day): no effect
- comedone area (FIG. 5) ([1]; daily topical 3 weeks, 653 nmole/kgBW/day): near-maximal reduction in comedone area
- comedone area (FIG. 7) ([1]; daily topical 3 weeks, 70 vol % ethanol/30 vol % propylene glycol, 22 nmole/kgBW/day): no effect
- comedone area relative to vehicle-treated group (FIG. 8, 9, 10) ([1]; daily topical 3 weeks, 70 vol % ethanol/30 vol % propylene glycol, 217 nmole/kgBW/day): significant reduction in comedone area
- comedone area (FIG. 7) [1, 5]: significant reduction in comedone area
- reduction in comedone area (FIG. 6) [1, 5]: > 50%
- comedone area (FIG. 6) ([1]; daily topical 3 weeks, 70 vol % ethanol/30 vol % propylene glycol, 653 nmole/kgBW/day): greater reduction in comedone area as compared to the lower dose
- comedone area relative to vehicle-treated group (FIG. 8) ([1]; daily topical 3 weeks, 70 vol % ethanol/30 vol % propylene glycol, 694 nmole/kgBW/day): significant reduction in comedone area
- comedone area relative to vehicle-treated group (FIG. 11) ([1]; topical 217 nmole/kgBW daily (total of 22 doses), 70 vol % ethanol/30 vol % propylene glycol): significant reduction in comedone area
- comedone area relative to vehicle-treated group (FIG. 11) ([1]; topical 217 nmole/kgBW intermittently Monday, Wednesday, Friday (total of 10 doses), 70 vol % ethanol/30 vol % propylene glycol): significant reduction in comedone area
- comedone area vs vehicle control (FIG. 3, FIG. 4) ([1]; topical 3 weeks, 30 vol % ethanol/70 vol % propylene glycol, 5.4 μg/day (ca. 800 nmole/kgBW/day)): reduction in the comedone area; also recorded: reduced comedone area
- potency in the reduction of comedone area relative to 20R-2MBisP ([1]; topical, 70 vol % ethanol/30 vol % propylene glycol, more potent than the 20R compound): approximately ½
- comedone area (FIG. 12) ([2]; oral daily 24 days, 522 nmole/kgBW/day): reduction in the comedone area
- comedone area vs vehicle control group (FIG. 15) ([3]; 2MBisP alone topically 21 days (0.22 μmole/kgBW/day, 30 vol % ethanol/70 vol % propylene glycol) with oral vehicle 24 days): lacked significant efficacy
- skin morphology, H&E sections (FIG. 16) ([3]; female Rhino mice, 2MBisP alone topically 0.22 μmole/kgBW/day, 30% ethanol/70% propylene glycol): did not alter skin morphology significantly

Compound: CC1=C(/C=C/C(C)=C/C=C/C(C)=C/C(=O)O)C(C)(C)CCC1 [atRA, all-trans-retinoic acid, reference compound]
- comedone size vs vehicle control (FIG. 2) ([2]; oral, 3 weeks, 0.83 μmole/kgBW): insignificant reduction in comedone size
- comedone size vs vehicle control (FIG. 2) ([2]; oral, 3 weeks, 16.6 μmole/kgBW): maximal reduction in comedone size
- comedone area, dose dependence (FIG. 2) ([2]; oral, 3 weeks, various doses): dose-dependent reduction in comedone area
- comedone area vs vehicle control group (FIG. 15) ([3]; atRA alone orally 24 days (830 nmole/kgBW/day) with topical vehicle 21 days): lacked significant efficacy
- skin morphology vs vehicle control, H&E sections (FIG. 16) ([3]; female Rhino mice, atRA alone orally 830 nmole/kgBW/day in soybean oil): did not alter skin morphology significantly

Compound: CC1=C(/C=C/C(C)=C/C=C/C(C)=C\C(=O)O)C(C)(C)CCC1 [13-cis retinoic acid, 13-cis-retinoic acid]
- binding to the RARs [4]: does not bind

Reference: US9339509B2, “Methods of use to orally and topically treat acne and other skin conditions by administering a 19-nor containing vitamin D analog with or without a retinoid” (Wisconsin Alumni Research Foundation, priority 2006, dated 2016)
